Experiment [1] is filed under the species Rattus norvegicus. The experiment is described as follows: Selectivity ratio of Ki for rat brain cerebral cortex alpha2 adrenergic receptor to Ki for rat brain cerebral cortex alpha1 adrenergic receptor.
The subject of experiment [2] is Rattus norvegicus. The experiment is described as follows: Hypotensive activity in normotensive anesthetized Wistar rat assessed as systolic blood pressure at 1 mg/kg, iv measured 30 mins post dose (reference value: 107.4 to 148.3 mmHg). It counts as functional.
The test system of experiment [3] is Rattus norvegicus. The experiment is described as follows: Hypotensive activity in normotensive anesthetized Wistar rat assessed as diastolic blood pressure at 1 mg/kg, iv measured 10 mins post dose (reference value: 81.6 to 115.2 mmHg). It counts as functional.
The subject of experiment [4] is Rattus norvegicus. The experiment is described as follows: Hypotensive activity in normotensive anesthetized Wistar rat assessed as systolic blood pressure at 1 mg/kg, iv measured 20 mins post dose (reference value: 107.4 to 148.3 mmHg). It counts as functional.
Experiment [5] has as its system Rattus norvegicus. Kind of experiment: Hypotensive activity in normotensive anesthetized Wistar rat assessed as systolic blood pressure at 1 mg/kg, iv measured 10 mins post dose (reference value: 107.4 to 148.3 mmHg). It counts as functional.
The subject of experiment [6] is Rattus norvegicus. Kind of experiment: Hypotensive activity in normotensive anesthetized Wistar rat assessed as diastolic blood pressure at 1 mg/kg, iv measured 5 mins post dose (reference value: 81.6 to 115.2 mmHg). It counts as functional.
The subject of experiment [7] is Rattus norvegicus. Kind of experiment: Hypotensive activity in normotensive anesthetized Wistar rat assessed as diastolic blood pressure at 1 mg/kg, iv measured 20 mins post dose (reference value: 81.6 to 115.2 mmHg). In kind it is functional.
The target of experiment [8] is T1, 5-hydroxytryptamine receptor 1A (Homo sapiens, UniProt P08908).
T1 sequence (P08908 whole entry): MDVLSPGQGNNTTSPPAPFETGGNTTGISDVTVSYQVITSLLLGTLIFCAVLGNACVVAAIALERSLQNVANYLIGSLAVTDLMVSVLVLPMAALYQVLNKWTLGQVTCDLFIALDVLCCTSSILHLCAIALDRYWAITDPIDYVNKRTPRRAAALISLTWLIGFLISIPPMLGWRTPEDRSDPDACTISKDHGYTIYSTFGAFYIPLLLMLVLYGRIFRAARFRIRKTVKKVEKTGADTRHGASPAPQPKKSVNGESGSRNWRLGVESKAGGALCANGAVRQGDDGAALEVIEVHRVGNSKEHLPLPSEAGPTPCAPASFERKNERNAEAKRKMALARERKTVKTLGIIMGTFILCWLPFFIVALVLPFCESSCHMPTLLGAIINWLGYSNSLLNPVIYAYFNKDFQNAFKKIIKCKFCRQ
The experiment is described as follows: Displacement of [3H]8-OH-DPAT from human recombinant 5-HT1A receptor expressed in membranes after 60 mins by microbeta scintillation counting method.

In experiment [9] the target is Adrenergic receptor alpha-1 (Rattus norvegicus) (UniProt P15823+P23944+P43140). The experiment is described as follows: Antagonist activity at alpha1 adrenergic receptor in Wistar rat aorta assessed as inhibition of naradrenaline-induced aortic contraction preincubated for 30 mins followed by naradrenaline stimulation for 3 hrs at 60 mins interval in presence of alpha2 adrenergic receptor blocker yohimbine and beta adrenergic receptor blocker propranolol.

Experiment [10] concerns Rattus norvegicus. Kind of experiment: Hypotensive activity in normotensive anesthetized Wistar rat assessed as systolic blood pressure at 1 mg/kg, iv measured 60 mins post dose (reference value: 107.4 to 148.3 mmHg). In kind it is functional.
In experiment [11] the test system is Rattus norvegicus. The experiment is described as follows: Hypotensive activity in normotensive anesthetized Wistar rat assessed as systolic blood pressure at 1 mg/kg, iv measured 5 mins post dose (reference value: 107.4 to 148.3 mmHg). It counts as functional.
The target in experiment [12] is T2, Adrenergic receptor alpha-1 (Rattus norvegicus, UniProt P15823+P23944+P43140).
T2 sequence (P15823 whole entry): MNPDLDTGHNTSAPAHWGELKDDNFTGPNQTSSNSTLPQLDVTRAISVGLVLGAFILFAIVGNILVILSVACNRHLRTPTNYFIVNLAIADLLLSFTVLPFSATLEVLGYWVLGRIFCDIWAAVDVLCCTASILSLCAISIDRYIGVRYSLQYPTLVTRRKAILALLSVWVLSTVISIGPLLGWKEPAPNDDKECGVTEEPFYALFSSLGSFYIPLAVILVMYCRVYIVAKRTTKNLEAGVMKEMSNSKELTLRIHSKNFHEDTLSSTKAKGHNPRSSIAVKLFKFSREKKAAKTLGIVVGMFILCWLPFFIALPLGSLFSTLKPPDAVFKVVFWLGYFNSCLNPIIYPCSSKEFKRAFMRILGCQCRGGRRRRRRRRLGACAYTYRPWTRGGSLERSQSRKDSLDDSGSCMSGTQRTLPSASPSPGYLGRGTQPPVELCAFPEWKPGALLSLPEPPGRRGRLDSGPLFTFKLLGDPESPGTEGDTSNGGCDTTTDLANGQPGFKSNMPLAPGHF
T2 sequence (P23944 whole entry): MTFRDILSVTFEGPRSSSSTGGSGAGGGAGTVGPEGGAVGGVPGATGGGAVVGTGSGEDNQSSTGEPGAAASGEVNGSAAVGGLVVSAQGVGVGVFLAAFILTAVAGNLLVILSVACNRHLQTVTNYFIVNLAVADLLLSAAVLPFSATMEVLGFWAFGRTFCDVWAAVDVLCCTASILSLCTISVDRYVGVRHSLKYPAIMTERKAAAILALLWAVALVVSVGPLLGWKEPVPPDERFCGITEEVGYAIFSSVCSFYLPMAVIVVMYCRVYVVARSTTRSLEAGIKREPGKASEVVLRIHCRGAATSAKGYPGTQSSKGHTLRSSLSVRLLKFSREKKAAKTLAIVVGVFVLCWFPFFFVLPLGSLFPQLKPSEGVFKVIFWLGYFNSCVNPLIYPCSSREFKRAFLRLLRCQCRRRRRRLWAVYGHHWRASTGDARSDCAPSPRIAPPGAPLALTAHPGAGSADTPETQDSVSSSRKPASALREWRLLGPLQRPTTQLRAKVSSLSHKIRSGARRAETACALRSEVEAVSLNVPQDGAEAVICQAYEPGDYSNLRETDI
T2 sequence (P43140 whole entry): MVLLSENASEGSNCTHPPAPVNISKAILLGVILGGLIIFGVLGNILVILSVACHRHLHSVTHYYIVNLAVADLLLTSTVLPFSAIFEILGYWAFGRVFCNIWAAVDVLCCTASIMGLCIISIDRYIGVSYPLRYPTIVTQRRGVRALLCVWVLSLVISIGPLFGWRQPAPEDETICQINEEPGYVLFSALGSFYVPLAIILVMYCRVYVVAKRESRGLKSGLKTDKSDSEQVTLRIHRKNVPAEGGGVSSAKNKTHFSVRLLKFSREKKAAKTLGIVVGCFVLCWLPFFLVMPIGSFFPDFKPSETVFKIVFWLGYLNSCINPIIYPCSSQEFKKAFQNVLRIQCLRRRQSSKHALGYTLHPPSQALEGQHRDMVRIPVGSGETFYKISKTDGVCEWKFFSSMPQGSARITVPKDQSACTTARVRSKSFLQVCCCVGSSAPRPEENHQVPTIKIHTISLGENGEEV
The experiment is described as follows: Displacement of [3H]prazosin from alpha1 adrenergic receptor in rat brain cerebral cortex after 30 mins by microbeta scintillation counting method. It counts as tissue-based. In general terms: In a radioligand displacement assay an active substance lowers the binding of a labelled ligand.

A short description of experiment [13]: Antidepressant-like activity in albino Swiss (CD-1) mouse assessed as immobility time at 10 mg/kg, ip administered 30 mins prior to test measured for last 4 mins of 6 mins observation by forced swim test (reference value: 178.3 +/- 12.3 sec). It counts as functional, organism-based.

On to `Cc1cccc(Cl)c1OCCCCN1CCN(c2ccccc2)CC1.Cl.Cl`, for which the Ratio Ki in the experiment filed under Rattus norvegicus [1] was found to be 8.48. Moreover, the Activity in the experiment with Rattus norvegicus [2] is listed as 123.5 mmHg; in the experiment with Rattus norvegicus [3], 102.2 mmHg; in the experiment with Rattus norvegicus [4] it was 126.2 mmHg; in the experiment on Rattus norvegicus [5], 127.7 mmHg; in the experiment with Rattus norvegicus [6], 103.7 mmHg; with Rattus norvegicus [7], 98.8 mmHg. The Activity was 120 mmHg in the experiment with Rattus norvegicus [10] and 129.3 mmHg with Rattus norvegicus [11]. Moreover, the Ki (commonly the equilibrium dissociation constant of an inhibitor or competing ligand from its target) was 4 nM in experiment [8] and 59.6 nM in experiment [12]. Also, the inhibition result in experiment [9] was “Dose-dependent effect”. For the same compound, the pKb (as a rule, the negative decadic logarithm of the Kb, by convention in mol/L) in [9] is 8.37. Further, the TIME in [13] came out at 0.0193 h.
As for `Cc1cccc(OCCCN2CCN(c3ccccc3)CC2)c1C.Cl.Cl`, the Ratio Ki in the experiment listed under Rattus norvegicus [1] was determined as 24.6. The Activity in the experiment on Rattus norvegicus [2] was determined as 135.8 mmHg; in the experiment on Rattus norvegicus [3], 112.8 mmHg; in the experiment on Rattus norvegicus [4] it was 138 mmHg; in the experiment on Rattus norvegicus [5], 138 mmHg; in the experiment with Rattus norvegicus [6], 111.8 mmHg; with Rattus norvegicus [7], 110.8 mmHg. Besides, the Activity in the experiment on Rattus norvegicus [10] worked out at 133.3 mmHg; with Rattus norvegicus [11], 143.8 mmHg. The Ki in experiment [8] came out at 5.4 nM; in [12], 33 nM. The inhibition entry in experiment [9] is “Dose-dependent effect”. The pKb in [9] came out at 7.97. The TIME in experiment [13] was found to be 0.048 h.
Consider `COc1ccccc1N1CCN(CCOCCOc2cccc(C)c2C)CC1.Cl.Cl`, for which the Ratio Ki in the experiment filed under Rattus norvegicus [1] was found to be 31.3. The Activity is listed as 131 mmHg in the experiment on Rattus norvegicus [2]; 106 mmHg in the experiment with Rattus norvegicus [3]; 130.4 mmHg in the experiment on Rattus norvegicus [4]; 131 mmHg in the experiment with Rattus norvegicus [5]; 105 mmHg with Rattus norvegicus [6]; 105.4 mmHg in the experiment on Rattus norvegicus [7]. For the same compound, the Activity in the experiment on Rattus norvegicus [10] is 132.6 mmHg; in the experiment on Rattus norvegicus [11] it was 129.8 mmHg. For the same compound, the Ki in experiment [8] is 5 nM; in [12], 28.5 nM. In experiment [9], the inhibition entry was “Dose-dependent effect”. Besides, the pKb in experiment [9] was 8.76. Further, in [13], the TIME turned out to be 0.0331 h.
Consider `Cc1cccc(OCCN2CCN(c3ccccc3)CC2)c1C.Cl.Cl`, for which the Ratio Ki in the experiment listed under Rattus norvegicus [1] is 1.82. In addition, the Activity in the experiment on Rattus norvegicus [2] was determined as 93 mmHg; in the experiment on Rattus norvegicus [3], 75 mmHg; with Rattus norvegicus [4], 96 mmHg; in the experiment on Rattus norvegicus [5], 97.2 mmHg; with Rattus norvegicus [6], 75.2 mmHg; in the experiment on Rattus norvegicus [7], 71.8 mmHg. In addition, the Activity came to 93.4 mmHg with Rattus norvegicus [10] and 99.8 mmHg with Rattus norvegicus [11]. Moreover, the Ki in experiment [8] turned out to be 12.3 nM; in experiment [12], 159 nM. The inhibition result in [9] is “Dose-dependent effect”. The pKb in experiment [9] was 8.75. The TIME in experiment [13] was determined as 0.0446 h.
Consider `COc1ccccc1N1CCN(CCCCOc2c(C)cccc2C)CC1.Cl`, for which the Ratio Ki in the experiment filed under Rattus norvegicus [1] stood at 15.8. The Activity with Rattus norvegicus [2] was determined as 125.5 mmHg; in the experiment with Rattus norvegicus [3], 105.2 mmHg; with Rattus norvegicus [4], 124.3 mmHg; with Rattus norvegicus [5], 126.2 mmHg; in the experiment with Rattus norvegicus [6], 109.8 mmHg; in the experiment with Rattus norvegicus [7], 103 mmHg. For the same compound, the Activity in the experiment on Rattus norvegicus [10] was 124.7 mmHg; in the experiment on Rattus norvegicus [11] it was 129.5 mmHg. Also, the Ki in experiment [8] was 2 nM; in experiment [12], 23.5 nM. In experiment [9], the inhibition result is “Dose-dependent effect”. In addition, the pKb in experiment [9] was 8.54. For the same compound, the TIME in [13] is 0.0398 h.

The record behind these values is ChEMBL document CHEMBL3860091, “Synthesis and activity of newly designed aroxyalkyl or aroxyethoxyethyl derivatives of piperazine on the cardiovascular and the central nervous systems” (Bioorg Med Chem Lett, 2016).
